Experimental data: US10702577B2, “Combination therapies using cyclosporine and aromatic cationic peptides” (STEALTH BIOTHERAPEUTICS CORP, priority 2010, dated 2020)
Square brackets hold non-standard residues; d marks the D form. Ends that are not written are not given here. Peptide text beside a SMILES is read from it.

Tests used:
[1] = test system: transplanted tissue or organ; cyclosporine nephrotoxicity; assay: Peptide with cyclosporine in transplant patients: organ health and nephrotoxicity (Example 7); assay type: in vivo; settings: subjects who receive the peptide versus those who do not; predicted
Text: To prevent organ or tissue rejection after transplant, patients often receive a regimen of the immunosuppressive drug cyclosporine. Cyclosporine levels are established and maintained in the subject at levels to effectively suppress the immune system. However, nephrotoxicity is a concern for these subjects, and the level of the drug in the subject's blood is monitored carefully. Cyclosporine doses are adjusted accordingly in order to not only prevent rejection, but also to deter these potentially damaging side effects. Typically, an adult transplant patient receives cyclosporine as follows: IV: 2 to 4 mg/kg/day IV infusion once a day over 4 to 6 hours, or 1 to 2 mg/kg IV infusion twice a day over 4 to 6 hours, or 2 to 4 mg/kg/day as a continuous IV infusion over 24 hours. Capsules: 8 to 12 mg/kg/day orally in 2 divided doses. Solution: 8 to 12 mg/kg orally once a day. […]
A therapeutically effective amount of an aromatic-cationic peptide or pharmaceutically acceptable salt thereof such as acetate or trifluoroacetate salt is administered to subjects prior to, during and/or after transplant as show in Table 13 above. Subjects are monitored for health and function of the transplanted tissue or organ, as well as the incidence and severity of nephrotoxicitity often seen with prolonged cyclosporine administration.

[2] = test system: several mammalian cell types; settings: energy-independent manner; Zhao et al. 2003; cited from earlier work
[3] = test system: mu-opioid receptor; settings: result in words; no data shown; cited from earlier work

Compound	mu-opioid receptor agonist activity [3]	also measured
Cc1cc(O)cc(C)c1C[C@H](NC(=O)[C@H](N)CCCNC(=N)N)C(=O)N[C@@H](CCCCN)C(=O)N[C@@H](Cc1ccccc1)C(N)=O [PEPTIDE, D-Arg-2′6′-Dmt-Lys-Phe-NH2] (HELM PEPTIDE1{[dR].[Cc1cc(O)cc(C)c1C[C@H](N[*:1])C(=O)[*:2]].K.F.[am]}$$$$V2.0)		tolerated cyclosporine dosage [1]: able to maintain a higher and/or more consistent cyclosporine dosage for longer periods of time
2′,6′-Dmt-D-Arg-Phe-Lys-NH2 [SS-02]		penetration of the plasma membrane [2]: readily penetrates the plasma membrane
Tyr-D-Arg-Phe-Lys-NH2 [SS-01]	has mu-opioid receptor agonist activity	
F[dR]FK-NH2 [SS-20]	does not have mu-opioid receptor agonist activity	
